pIC50, pKd: −log10 of the molar value. Blank lines part the entries; values can stand above or below the compound they belong to.
Tests used:
[1] = biological target: T1, CypD (Homo sapiens, UniProt P30405); assay: CypD binding assay (competition fluorescence polarisation with fluorescein-labelled cyclosporin)
Method: The binding capacity of the compounds were measured using a competition Fluorescence-Polarisation based assay with fluorescine labelled cyclosporin. The protocol used was adapted from Hausch et al, Med Chem lett 2010, p 536.

[2] = biological target: T1, CypD; assay: SPR binding; conditions: SPR surface; read-out: SPR CypD (KDSS)
Excerpt: Binding was confirmed on an SPR surface using a protocol adapted from Mori et al., J. Biomolecular Screening, 2009 p 419.

T1 sequence (P30405 30-207): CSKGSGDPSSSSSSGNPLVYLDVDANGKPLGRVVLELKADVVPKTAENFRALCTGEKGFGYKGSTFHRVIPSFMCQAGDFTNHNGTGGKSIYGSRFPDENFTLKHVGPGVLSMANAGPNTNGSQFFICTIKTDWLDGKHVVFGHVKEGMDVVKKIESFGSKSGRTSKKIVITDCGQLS

Compound: O=C(NCC(=O)N1CCC[C@@H]1C(F)(F)F)NCc1ccc2c(c1)[C@@H]1C[C@H](N2)[C@H](O)CO1 [Compound 37, 1-(((2S,3S,6S)-3-hydroxy-2,3,4,6-tetrahydro-1H-2,6-methanobenzo[c][1,5]oxazocin-8-yl)methyl)-3-(2-oxo-2-((R)-2-(trifluoromethyl)pyrrolidin-1-yl)ethyl)urea]
pIC50 [1]: 4.00 to 6.00 | pKd [2]: 4.00 to 6.00

Compound: CCN1Cc2cc(CCC(=O)NCC(=O)N(C)[C@H](C)c3ccccc3)ccc2NCCC1=O [Compound 31, (R)-3-(5-ethyl-4-oxo-1,2,3,4,5,6-hexahydrobenzo[b][1,5]diazocin-8-yl)-N-(2-(methyl(1-phenylethyl)amino)-2-oxoethyl)propanamide]
pIC50 [1]: 4.00 to 6.00 | pKd [2]: 4.00 to 6.00

Compound: 3-((1R,9R,10S)-10-Hydroxy-12-oxa-8-aza-tricyclo[7.3.1.02,7]trideca-2(7),3,5-trien-4-yl)-N-(2-oxo-2-pyrrolidin-1-yl-ethyl)-propionamide [Compound 26]
pIC50 [1]: 4.00 to 6.00 | pKd [2]: 4.00 to 6.00

Compound: CCN1Cc2cc(CNC(=O)NCC(=O)N3CCC[C@@H]3C(F)(F)F)ccc2NCCC1=O [Compound 24, 1-(5-Ethyl-4-oxo-1,2,3,4,5,6-hexahydro-benzo[b][1,5]diazocin-8-ylmethyl)-3-[2-oxo-2-((R)-2-trifluoromethyl-pyrrolidin-1-yl)-ethyl]-urea]
pIC50 [1]: 4.00 to 6.00 | pKd [2]: 4.00 to 6.00

Compound: CCN1Cc2cc(CCC(=O)NCC(=O)N3CCCC3c3ccccc3C(F)(F)F)ccc2NCCC1=O (stereo not shown) [Compound 19, 3-(5-Ethyl-4-oxo-1,2,3,4,5,6-hexahydro-benzo[b][1,5]diazocin-8-yl)-N-{2-oxo-2-[2-(2-trifluoromethyl-phenyl)-pyrrolidin-1-yl]-ethyl}-propionamide]
pIC50 [1]: 4.00 to 6.00 | pKd [2]: 4.00 to 6.00

Compound: O=C(NCC(=O)N1CCCC1c1cccnc1)NCc1ccc2c(c1)[C@H]1C[C@@H](N2)[C@H](O)CO1 (stereo partly drawn) [Compound 18, 1-((1R,9R,10S)-10-Hydroxy-12-oxa-8-aza-tricyclo[7.3.1.02,7]trideca-2(7),3,5-trien-4-ylmethyl)-3-[2-oxo-2-(2-pyridin-3-yl-pyrrolidin-1-yl)-ethyl]-urea]
pIC50 [1]: 4.00 to 6.00 | pKd [2]: 4.00 to 6.00

Compound: CSc1ccccc1[C@H]1CCCN1C(=O)CNC(=O)NC(C)c1ccc2c(c1)CCCC(=O)N2 (stereo partly drawn) [Compound 21, 1-{2-[(R)-2-(2-Methylsulfanyl-phenyl)-pyrrolidin-1-yl]-2-oxo-ethyl}-3-[1-(2-oxo-2,3,4,5-tetrahydro-1H-benzo[b]azepin-7-yl)-ethyl]-urea]
pIC50 [1]: 4.00 to 6.00 | pKd [2]: 4.00 to 6.00

Compound: CSc1ccccc1[C@H]1CCCN1C(=O)CNC(=O)CCc1ccc2c(c1)[C@@H]1C[C@H](N2)[C@H](O)CO1 [Compound 23, 3-((2S,3S,6S)-3-hydroxy-2,3,4,6-tetrahydro-1H-2,6-methanobenzo[c][1,5]oxazocin-8-yl)-N-(2-((R)-2-(2-(methylthio)phenyl)pyrrolidin-1-yl)-2-oxoethyl)propanamide]
pIC50 [1]: 4.00 to 6.00 | pKd [2]: 4.00 to 6.00

Compound: CCN1Cc2cc(CCC(=O)NCC(=O)N3CCCC4(CCCCC4)C3)ccc2NCCC1=O [Compound 25, N-[2-(2-Aza-spiro[5.5]undec-2-yl)-2-oxo-ethyl]-3-(5-ethyl-4-oxo-1,2,3,4,5,6-hexahydro-benzo[b][1,5]diazocin-8-yl)-propionamide]
pIC50 [1]: 4.00 to 6.00 | pKd [2]: 4.00 to 6.00

Compound: CCN1Cc2cc(CCC(=O)N[C@H](C(=O)N3CCCC3)c3ccccc3)ccc2NCCC1=O [Compound 32, 3-(5-Ethyl-4-oxo-1,2,3,4,5,6-hexahydro-benzo[b][1,5]diazocin-8-yl)-N—((S)-2-oxo-1-phenyl-2-pyrrolidin-1-yl-ethyl)-propionamide]
pIC50 [1]: 4.00 to 6.00 | pKd [2]: 4.00 to 6.00

Compound: C[C@H](NC(=O)CCc1ccc2c(c1)[C@H]1C[C@@H](N2)[C@H](O)CO1)C(=O)N1CCCC1 [Compound 6, 3-((2R,3S,6R)-3-hydroxy-2,3,4,6-tetrahydro-1H-2,6-methanobenzo[c][1,5]oxazocin-8-yl)-N—((S)-1-oxo-1-(pyrrolidin-1-yl)propan-2-yl)propanamide]
pIC50 [1]: 4.00 to 6.00 | pKd [2]: 4.00 to 6.00

Compound: CN(C(=O)CNC(=O)NCc1ccc2c(c1)[C@H]1C[C@@H](N2)[C@H](O)CO1)C1CCCC1 [Compound 20, N-cyclopentyl-2-(3-(((2R,3S,6R)-3-hydroxy-2,3,4,6-tetrahydro-1H-2,6-methanobenzo[c][1,5]oxazocin-8-yl)methyl)ureido)-N-methylacetamide]
pIC50 [1]: 4.00 to 6.00 | pKd [2]: 4.00 to 6.00

Compound: CCN1Cc2cc(CCC(=O)NCC(=O)N3CCC[C@H]3CO)ccc2NCCC1=O [Compound 34, 3-(5-Ethyl-4-oxo-1,2,3,4,5,6-hexahydro-benzo[b][1,5]diazocin-8-yl)-N-[2-((S)-2-hydroxymethyl-pyrrolidin-1-yl)-2-oxo-ethyl]-propionamide]
pIC50 [1]: 4.00 to 6.00 | pKd [2]: 4.00 to 6.00

Compound: CCN1Cc2cc(CNC(=O)NCC(=O)N3CCC[C@H]3CO)ccc2NCCC1=O [Compound 22, 1-(5-Ethyl-4-oxo-1,2,3,4,5,6-hexahydro-benzo[b][1,5]diazocin-8-ylmethyl)-3-[2-((S)-2-hydroxymethyl-pyrrolidin-1-yl)-2-oxo-ethyl]-urea]
pIC50 [1]: 4.00 to 6.00 | pKd [2]: 4.00 to 6.00

Compound: CCN1Cc2cc(CNC(=O)NCC(=O)N3CCCC3c3ccccn3)ccc2NCCC1=O (stereo not shown) [Compound 36, 1-(5-Ethyl-4-oxo-1,2,3,4,5,6-hexahydro-benzo[b][1,5]diazocin-8-ylmethyl)-3-[2-oxo-2-(2-pyridin-2-yl-pyrrolidin-1-yl)-ethyl]-urea]
pIC50 [1]: 4.00 to 6.00 | pKd [2]: 4.00 to 6.00

Now from value to compound:

pIC50 [1]: 4.00 to 6.00 | pKd [2]: 4.00 to 6.00
Compound: CCN1Cc2cc(CCC(=O)NCC(=O)N3CCC[C@@H]3CO)ccc2NCCC1=O [Compound 33, 3-(5-Ethyl-4-oxo-1,2,3,4,5,6-hexahydro-benzo[b][1,5]diazocin-8-yl)-N-[2-(®-2-hydroxymethyl-pyrrolidin-1-yl)-2-oxo-ethyl]-propionamide]

pIC50 [1]: 4.00 to 6.00 | pKd [2]: 4.00 to 6.00
Compound: CSc1ccccc1[C@H]1CCCN1C(=O)CN(C)C(=O)NCc1ccc2c(c1)[C@H]1C[C@@H](N2)[C@H](O)CO1 [Compound 16, 3-((1R,9R,10S)-10-Hydroxy-12-oxa-8-aza-tricyclo[7.3.1.02,7]trideca-2(7),3,5-trien-4-ylmethyl)-1-methyl-1-{2-[(R)-2-(2-methylsulfanyl-phenyl)-pyrrolidin-1-yl]-2-oxo-ethyl}-urea]

pIC50 [1]: 4.00 to 6.00 | pKd [2]: 4.00 to 6.00
Compound: CCN1Cc2cc(CCC(=O)N[C@@H](CO)C(=O)N3CCCC3)ccc2NCCC1=O [Compound 29, 3-(5-Ethyl-4-oxo-1,2,3,4,5,6-hexahydro-benzo[b][1,5]diazocin-8-yl)-N—((S)-1-hydroxymethyl-2-oxo-2-pyrrolidin-1-yl-ethyl)-propionamide]

pIC50 [1]: 4.00 to 6.00 | pKd [2]: 4.00 to 6.00
Compound: CCn1nnc(CNC(=O)NCc2ccc3c(c2)[C@H]2C[C@@H](N3)[C@H](O)CO2)n1 [Compound 39, 1-((2-ethyl-2H-tetrazol-5-yl)methyl)-3-(((2R,3S,6R)-3-hydroxy-2,3,4,6-tetrahydro-1H-2,6-methanobenzo[c][1,5]oxazocin-8-yl)methyl)urea]

pIC50 [1]: 4.00 to 6.00 | pKd [2]: 4.00 to 6.00
Compound: CCN1Cc2cc(CCC(=O)NCC(=O)N3CCC[C@@H]3c3ccccc3SC)ccc2NCCC1=O [Compound 11, 3-(5-Ethyl-4-oxo-1,2,3,4,5,6-hexahydro-benzo[b][1,5]diazocin-8-yl)-N-{2-[(R)-2-(2-methylsulfanyl-phenyl)-pyrrolidin-1-yl]-2-oxo-ethyl}-propionamide]

pIC50 [1]: 4.00 to 6.00 | pKd [2]: > 6.00
Compound: O=C(NCC(=O)N1CCCC1c1ccccn1)NCc1ccc2c(c1)[C@H]1C[C@@H](N2)[C@H](O)CO1 (stereo partly drawn) [Compound 9, 1-(((2R,3S,6R)-3-hydroxy-2,3,4,6-tetrahydro-1H-2,6-methanobenzo[c][1,5]oxazocin-8-yl)methyl)-3-(2-oxo-2-(2-(pyridin-2-yl)pyrrolidin-1-yl)ethyl)urea]

pIC50 [1]: 4.00 to 6.00 | pKd [2]: 4.00 to 6.00
Compound: O=C(NCC(=O)N1CCC[C@@H]1C(F)(F)F)NCc1ccc2c(c1)[C@H]1C[C@@H](N2)[C@H](O)CO1 [Compound 8, 1-(((2R,3S,6R)-3-hydroxy-2,3,4,6-tetrahydro-1H-2,6-methanobenzo[c][1,5]oxazocin-8-yl)methyl)-3-(2-oxo-2-((R)-2-(trifluoromethyl)pyrrolidin-1-yl)ethyl)urea]

pIC50 [1]: 4.00 to 6.00 | pKd [2]: 4.00 to 6.00
Compound: CCN1Cc2cc(CNC(=O)NCC(=O)N3CCCC3c3ccccc3C(F)(F)F)ccc2NCCC1=O (stereo not shown) [Compound 15, 1-(5-Ethyl-4-oxo-1,2,3,4,5,6-hexahydro-benzo[b][1,5]diazocin-8-ylmethyl)-3-{2-oxo-2-[2-(2-trifluoromethyl-phenyl)-pyrrolidin-1-yl]-ethyl}-urea]

pIC50 [1]: > 6.00 | pKd [2]: > 6.00
Compound: CCN1Cc2cc(CNC(=O)NCC(=O)N3CCC[C@@H]3c3ccccc3SC)ccc2NCCC1=O [Compound 3, 1-(5-Ethyl-4-oxo-1,2,3,4,5,6-hexahydro-benzo[b][1,5]diazocin-8-ylmethyl)-3-{2-[(R)-2-(2-methylsulfanyl-phenyl)-pyrrolidin-1-yl]-2-oxo-ethyl}-urea]

pIC50 [1]: > 6.00 | pKd [2]: > 6.00
Compound: CSc1ccccc1[C@H]1CCCN1C(=O)CCC(=O)NCc1ccc2c(c1)[C@H]1C[C@@H](N2)[C@H](O)CO1 [Compound 2, N-((1R,9R,10S)-10-Hydroxy-12-oxa-8-aza-tricyclo[7.3.1.02,7]trideca-2,4,6-trien-4-ylmethyl)-4-[(R)-2-(2-methylsulfanyl-phenyl)-pyrrolidin-1-yl]-4-oxo-butyramide]

pIC50 [1]: > 6.00 | pKd [2]: > 6.00
Compound: CSc1ccccc1[C@H]1CCCN1C(=O)CNC(=O)CCc1ccc2c(c1)[C@H]1C[C@@H](N2)[C@H](O)CO1 [Compound 5, 3-((1R,9R,10S)-10-Hydroxy-12-oxa-8-aza-tricyclo[7.3.1.02,7]trideca-2(7),3,5-trien-4-yl)-N-{2-[(R)-2-(2-methylsulfanyl-phenyl)-pyrrolidin-1-yl]-2-oxo-ethyl}-propionamide]
